IC50 data for 32 molecules are collected here from patent publication US20100160304A1, “AROMATIC SULFONE COMPOUND AS ALDOSTERONE RECEPTOR MODULATOR” (Dainippon Sumitomo Pharma Co., Ltd, priority 2005, published 2010).

This experiment deals with T1, aldosterone receptor MR (Rattus norvegicus, UniProt P22199).
T1 construct: the resultant supernatant was being a soluble fraction of the kidney; from tissue; host or cells: kidney of adrenalectomized rat, 105,000 G supernatant (soluble fraction)
T1 sequence (P22199 1-981): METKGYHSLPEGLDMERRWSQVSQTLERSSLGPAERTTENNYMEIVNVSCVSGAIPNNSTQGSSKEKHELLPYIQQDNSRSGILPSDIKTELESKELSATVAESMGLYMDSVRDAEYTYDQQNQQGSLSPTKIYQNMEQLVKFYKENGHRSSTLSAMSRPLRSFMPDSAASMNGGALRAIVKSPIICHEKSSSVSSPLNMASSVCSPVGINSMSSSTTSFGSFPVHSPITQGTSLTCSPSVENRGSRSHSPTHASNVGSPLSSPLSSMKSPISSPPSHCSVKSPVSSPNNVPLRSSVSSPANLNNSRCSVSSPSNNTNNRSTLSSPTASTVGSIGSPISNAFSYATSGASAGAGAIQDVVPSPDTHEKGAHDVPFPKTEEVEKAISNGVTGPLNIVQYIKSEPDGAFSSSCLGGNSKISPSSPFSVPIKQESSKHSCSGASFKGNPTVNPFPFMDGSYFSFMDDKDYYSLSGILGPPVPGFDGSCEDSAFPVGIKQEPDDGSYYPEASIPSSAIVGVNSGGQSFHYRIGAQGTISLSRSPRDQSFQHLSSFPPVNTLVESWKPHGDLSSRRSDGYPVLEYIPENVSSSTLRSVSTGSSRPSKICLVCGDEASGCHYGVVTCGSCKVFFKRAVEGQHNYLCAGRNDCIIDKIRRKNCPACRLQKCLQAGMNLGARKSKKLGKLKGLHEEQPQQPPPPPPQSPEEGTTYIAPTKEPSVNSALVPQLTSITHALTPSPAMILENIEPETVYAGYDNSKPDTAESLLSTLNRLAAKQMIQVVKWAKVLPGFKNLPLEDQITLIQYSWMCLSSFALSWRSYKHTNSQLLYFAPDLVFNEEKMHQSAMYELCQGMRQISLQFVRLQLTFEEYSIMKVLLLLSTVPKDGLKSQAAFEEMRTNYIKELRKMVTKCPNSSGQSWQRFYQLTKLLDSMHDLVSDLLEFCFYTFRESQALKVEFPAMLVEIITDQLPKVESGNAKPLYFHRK
Description: Aldosterone receptor binding assay ([3H]aldosterone, soluble fraction of rat kidney). The settings on record: [3H]aldosterone 2 nM, 2 μM RU-486, 4° C. about 18 hours. On the procedure:
Flank incision (both sides) was subjected to a rat to adrenalectomize. After suturing the rat's incised parts, the rat was again returned to a breeding cage and bred for a duration of 3 to 5 days to collect a kidney from the rat; the collected kidney was homogenized with 0.1 M Tris-HCl, 0.25M sucrose, 0.1M Na2MoO4, 2 mM DTT buffer solution (pH 7.4), the resultant solution was subjected to centrifugal separation at 105,000 G for 30 minutes, and the resultant supernatant was being a soluble fraction of the kidney.
Thereafter, the reactant solution was added with 50 μL of 5% dextran coated charcoal and mixed, and then centrifugated at 3,000 G for 5 minutes. Subsequently, 100 μL of the supernatant was collected and mixed with 3.5 mL of liquid scintillator ACS-II (Amersham) to measure a radioactivity with a liquid scintillation counter (manufactured by Packard, Tri Carb 2700TR). A non-specific binding was determined by adding 2 μM of aldosterone to the reactant solution.
Binding inhibiting rate (%)=10−[(B−N)/(B0−N)]×100
B: Binding amount of the marker ligand in the co-presence of the tested substance and marker ligand,
B0: Binding amount of the marker ligand in the absence of the tested substance, and
N: Binding amount of the marker ligand in the presence of excess aldosterone (2 μM).

The IC50 is the concentration needed to halve the response being measured. Read a low IC50 as higher potency. Regarding `CC1(C)OC(=S)Nc2ccc(NS(=O)(=O)c3ccsc3)cc21` [Example 28, N-(4,4-Dimethyl-2-thioxo-1,4-dihydro-2H-3,1-benzoxazin-6-yl)thiophene-3-sulfonamide], the IC50 stood at 13 nM.
Turning to `CC1=CC(C)(C)Nc2ccc(NS(=O)(=O)c3ccccc3)cc21` [Example 63, N-(2,2,4-Trimethyl-1,2-dihydroquinolin-6-yl)benzenesulfonamide], the IC50 turned out to be 360 nM.
Then `CC1=CC(C)(C)Nc2ccc(NS(=O)(=O)c3cccc(F)c3)cc21` [Example 68, 3-Fluoro-N-(2,2,4-trimethyl-1,2-dihydroquinolin-6-yl)benzenesulfonamide], with 1500 nM; and `CC1(C)OC(=S)Nc2ccc(NS(=O)(=O)c3ccc(C(F)(F)F)cc3)cc21` [Example 30, N-(4,4-Dimethyl-2-thioxo-1,4-dihydro-2H-3,1-benzoxazin-6-yl)-4-(trifluoromethyl)benzenesulfonamide], with 160 nM.
`CC(=O)N(c1ccc2c(c1)C(C)=CC(C)(C)N2)S(=O)(=O)c1ccccc1` [Example 87, N-(Phenylsulfonyl)-N-(2,2,4-trimethyl-1,2-dihydroquinolin-6-yl)acetamide] returned an IC50 of 500 nM. Against the preceding molecule, the IC50 is about 3.1-fold higher.
Then `Cc1ccc(S(=O)(=O)Nc2ccc3c(c2)C(C)(C)OC(=S)N3)cc1` [Example 22, N-(4,4-Dimethyl-2-thioxo-1,4-dihydro-2H-3,1-benzoxazin-6-yl)-4-methylbenzenesulfonamide], with 210 nM; and `CC1(C)OC(=S)Nc2ccc(OS(=O)(=O)c3ccc4ccccc4c3)cc21` [Example 14, 4,4-Dimethyl-2-thioxo-1,4-dihydro-2H-3,1-benzoxazin-6-yl naphthalene-2-sulfonate], with 470 nM.
Under `C#CC1(C)OC(=S)Nc2ccc(NS(=O)(=O)c3cccs3)cc21` (centres unmarked) [Example 48, N-(4-Ethynyl-4-methyl-2-thioxo-1,4-dihydro-2H-3,1-benzoxazin-6-yl)thiophene-2-sulfonamide] stands 320 nM; under `CC1=CC(C)(C)Nc2ccc(OS(=O)(=O)c3ccc(C)cc3)cc21` [Example 51, 2,2,4-Trimethyl-1,2-dihydroquinolin-6-yl 4-methylbenzenesulfonate], 300 nM.
Under `CC1(C)OC(=S)Nc2ccc(CS(=O)(=O)c3ccccc3)cc21` [Example 18, 4,4-Dimethyl-6-[(phenylsulfonyl)methyl]-1,4-dihydro-2H-3,1-benzoxazin-2-thione] stands 39 nM; under `CC1=CC(C)(C)Nc2ccc(CS(=O)(=O)c3ccc(C)cc3)cc21` [Example 57, 2,2,4-Trimethyl-6-{[(4-methylphenyl)sulfonyl]methy}-1,2-dihydroquinoline], 29 nM; under `CC1=CC(C)(C)Nc2ccc(NS(=O)(=O)c3ccccc3F)cc21` [Example 67, 2-Fluoro-N-(2,2,4-trimethyl-1,2-dihydroquinolin-6-yl)benzenesulfonamide], 600 nM.
Take `CC(=O)N(c1ccc2c(c1)C(C)=CC(C)(C)N2)S(=O)(=O)c1ccc(Cl)cc1` [Example 88, N-[(4-Chlorophenyl)sulfonyl]-N-(2,2,4-trimethyl-1,2-dihydroquinolin-6-yl) acetamide]: the IC50 was 300 nM. This IC50 lies about 2-fold lower than the previous one.
Then `CC(=O)N(c1ccc2c(c1)C(C)(C)OC(=S)N2)S(=O)(=O)c1cccs1` [Example 26, N-(4,4-Dimethyl-2-thioxo-1,4-dihydro-2H-3,1-benzoxazin-6-yl)-N-(2-thienylsulfonyl)acetamide], with 15 nM; and `Cc1ccc(S(=O)(=O)Oc2ccc3c(c2)C(C)(C)OC(=S)N3)cc1` [Example 2, 4,4-Dimethyl-2-thioxo-1,4-dihydro-2H-3,1-benzoxazin-6-yl 4-methylbenzenesulfonate], with 320 nM.
In turn, `CC1=CC(C)(C)Nc2ccc(NS(=O)(=O)c3ccc(F)cc3)cc21` [Example 69, 4-Fluoro-N-(2,2,4-trimethyl-1,2-dihydroquinolin-6-yl)benzenesulfonamide] came in with a half-inhibitory concentration (IC50) of 1200 nM. Compared with the last molecule, the IC50 is about 3.8-fold higher.
`CC1(C)OC(=S)Nc2ccc(NS(=O)(=O)c3ccccc3F)cc21` [Example 29, N-(4,4-Dimethyl-2-thioxo-1,4-dihydro-2H-3,1-benzoxazin-6-yl)-2-fluorobenzenesulfonamide] yielded an IC50 of 1600 nM.
Consider `Cc1ccc(S(=O)(=O)Cc2cnc3c(c2)C(C)(C)OC(=S)N3)cc1` [Example 36, 4,4-Dimethyl-6-{[(4-methylphenyl)sulfonyl]methyl}-1,4-dihydro-2H-pyrido[2,3-d][1,3]oxazin-2-thione], for which the half-maximal inhibitory concentration (IC50) was 1300 nM.
Regarding `CC1=CC(C)(C)Nc2ccc(NS(=O)(=O)c3ccc(C(F)(F)F)cc3)cc21` [Example 70, 4-(Trifluoromethyl)-N-(2,2,4-trimethyl-1,2-dihydroquinolin-6-yl)benzenesulfonamide], the IC50 was 300 nM.
Molecule `Cc1ccc(S(=O)(=O)Oc2ccc(NS(C)(=O)=O)cc2)cc1` [Example 105, 4-[(Methylsulfonyl)amino]phenyl 4-methylbenzenesulfonate] yielded an IC50 of 6600 nM.
`CC(=O)N(c1ccc2c(c1)C(C)CC(C)(C)N2)S(=O)(=O)c1ccc(C)cc1` (centres unmarked) [Example 101, N-[(4-Methylphenyl)sulfonyl]-N-(2,2,4-trimethyl-1,2,3,4-tetrahydroquinolin-6-yl)acetamide] came in with an IC50 of 190 nM. This IC50 is about 35-fold lower than that of the molecule before.
Under `CC1(C)OC(=O)Nc2ccc(NS(=O)(=O)c3cccs3)cc21` [Example 23, N-(4,4-Dimethyl-2-oxo-1,4-dihydro-2H-3,1-benzoxazin-6-yl)thiophene-2-sulfonamide] stands 2400 nM; under `C=CC1OC(=S)Nc2ccc(NS(=O)(=O)c3cccs3)cc21` (centres unmarked) [Example 46, N-(2-Thioxo-4-vinyl-1,4-dihydro-2H-3,1-benzoxazin-6-yl)thiophene-2-sulfonamide], 2900 nM.
Under `CC1=CC(C)(C)Nc2cc(C)c(NS(=O)(=O)c3ccc(C)cc3)cc21` [Example 80, 4-Methyl-N-(2,2,4,7-tetramethyl-1,2-dihydroquinolin-6-yl)benzenesulfonamide] stands 1300 nM.
Then `CCCCS(=O)(=O)Nc1ccc(OS(=O)(=O)c2ccc(C)cc2)cc1` [Example 106, 4-[(Butylsulfonyl)amino]phenyl 4-methylbenzenesulfonate], with 8000 nM; and `CC1CC(C)(C)Nc2ccc(NS(=O)(=O)c3ccc4ccccc4c3)cc21` (centres unmarked) [Example 99, N-(2,2,4-Trimethyl-1,2,3,4-tetrahydroquinolin-6-yl)naphthalene-2-sulfonamide], with 3900 nM.
`CC1=CC(C)(C)Nc2ccc(NS(=O)(=O)c3cc4ccccc4s3)cc21` [Example 75, N-(2,2,4-Trimethyl-1,2-dihydroquinolin-6-yl)-1-benzothiophene-2-sulfonamide] displayed an IC50 of 390 nM.
In turn, `CC1=CC(C)(C)Nc2ccc(NS(=O)(=O)c3cccnc3)cc21` [Example 73, N-(2,2,4-Trimethyl-1,2-dihydroquinolin-6-yl)pyridine-3-sulfonamide] showed a concentration for half-maximal inhibition (IC50) of 210 nM.
As to `Cc1ccc(S(=O)(=O)Oc2ccc(NS(C)(=O)=O)cc2C)cc1` [Example 109, 2-Methyl-4-[(methylsulfonyl)amino]phenyl 4-methylbenzenesulfonate], the IC50 is 16000 nM.
In turn, `CC1=CC(C)(C)Nc2ccc(NS(=O)(=O)c3cccs3)cc21` [Example 62, N-(2,2,4-Trimethyl-1,2-dihydroquinolin-6-yl)thiophene-2-sulfonamide] registered an IC50 of 130 nM.
Then `Cc1ccc(S(=O)(=O)Cc2ccc(NS(C)(=O)=O)cc2)cc1` [Example 112, N-(4-{[(4-Methylphenyl)sulfonyl]methyl}phenyl)methanesulfonamide], with 5400 nM; and `C=CC1(C)OC(=O)Nc2ccc(NS(=O)(=O)c3cccs3)cc21` (centres unmarked) [Example 49, N-(4-Methyl-2-oxo-4-vinyl-1,4-dihydro-2H-3,1-benzoxazin-6-yl)thiophene-2-sulfonamide], with 2700 nM.
